Data reported in US20250276100A1, “DEVELOPMENT OF NTSR TARGETED AGENTS FOR IMAGING AND THERAPY APPLICATIONS” (THE UNIVERSITY OF NORTH CAROLINA AT CHAPEL HILL, priority 2022, published 2025).
Entries after “also recorded” stand apart in the source; their conditions may differ. Read-outs that look alike come from different tables or passages of the source. Where a SMILES comes first, the peptide text is derived from it. [ ]: non-standard residue; d: D form. The star is where a group is joined. Gly(1-amidinopiperidin-4-yl) = N=C(N)N1CCC([C@H](N)C(=O)O)CC1; Gly(piperidin-4-yl) = N[C@H](C(=O)O)C1CCNCC1; NMeR = CN[C@@H](CCCNC(=N)N)C(=O)O; Tle = CC(C)(C)[C@H](N)C(=O)O; X1 = O=S(=O)(CCOCCOCCF)CC*

Columns and labels:
tumor = tested on: tumor
Description: Copper-64 (t1/2=12.7 hr) decays by β+ (20%) and β− emission (37%), as well as electron capture (43%), making it well suited for radiolabeling proteins, antibodies and peptides, for both PET imaging (β+) and therapy (β+ and β−). Limitations to the chelating agents currently used with ^64Cu include significant loss of ^64Cu from the conjugate, leading to high uptake in the liver. In order to overcome this limitation, a new class of bifunctional chelators (BFCs) based on the hexaazamacrobicyclic sarcophagine cage SarAr (1-N-(4-aminobenzyl)-3,6,10,13,16,19-hexaazabicyclo[6.6.6]-eicosane-1,8-diamine) was synthesized. These ligands coordinate metal ions such as Cu^2+ within the multiple macrocyclic rings comprising the Sar cage structure, yielding extraordinarily stable complexes that are inert to dissociation of the metal ion. The functionalization approach of Sar cage was improved through a direct alkylation (SN2) reaction.
However, the kidneys have much higher tracer uptake compared with liver, while the pattern was reversed on PET imaging (Cu-64 falls off DOTA and leads to high liver uptake).

[1] = side by side comparison of 64Cu labeled SR-CP-05 with NT peptide analogs and 3BP-227 (FIG. 8), tumor uptake and contrast; format: in vivo; conditions: tumor; for tissue uptake: mouse, NT peptide analogs, read-out: absolute tumor uptake value; for tissue uptake at 1 hr: FIG. 8 side by side comparison, 1 hr post injection
Description: (§1) The NTSR1 targeted imaging agent was constructed based on NTS peptide derivatives. Although high tumor-to-background contrast could be obtained, the absolute tumor uptake was moderate with fast clearance from the subject. Moreover, these NTSR1 binding peptides are generally agonists of NTSR1, which may promote tumor progress at high concentration. This may not be a concern for PET imaging due to the limited amount, but it could be a potential risk in treatment. Antagonistic SR142948A based agents were developed, the lead agent being 3BP-227. Side by side comparisons between the lead agent SR-CP-05 and previously reported agents were performed. […] Importantly, SR-CP-05 maintained >15% ID/g tumor uptake at 48 hr post injection. In contrast, the tumor uptake of 3BP-227 decreased to 2.3% ID/g at 24 hr post injection. The unique distribution profile of SR-CP-05 can provide an imaging and radionuclide-based therapy agent targeting NTSR1.
(§2) SR-CP-05 was discovered to be well suited for therapy applications. […] Clearly, the fast clearance may be acceptable from an imaging point of view, but these ligands are not suited for therapeutic applications. […] Importantly, high contrast (tumor/background >20) was obtained at 1 hr post injection and the washout was minimal even after 48 hr post injection. […] Clearly, SR-CP-05 represents a highly promising ligand for both imaging and therapy applications.
(§3) Solution 1) The discovery of a new NTSR1 ligand SR-CP-05 for targeted imaging and therapy. The introduction of crosslinked polyamines into SR142948A (leading to the new agent, SR-CP-05) could increase the tumor uptake by 10 times compared with peptide based agents. Although the tumor to muscle contrast was reduced somewhat right after injection, the ratio is still >20 at 1 hr post injection. More importantly, the agent stayed within the tumor for up to 48 hr, making it useful for therapeutic applications as well. Side by side comparisons were made between SR-CP-05 and previously reported agents. […] Importantly, high contrast (tumor/muscle >20) was also obtained for SR-CP-05 at 1 hr post injection and the washout is minimal after 48 hr post injection (compared with tumor/muscle >3 at 1 hr post injection for 3BP-227). […] The unique distribution profile of SR-CP-05 provides an imaging and radionuclide-based therapy targeting NTSR1.

NTSR1 [2] = molecular target: T1, NTSR1 (Homo sapiens, UniProt P30989); test: as above; format: in vivo
T1 construct: from tissue; host or cells: NTSR1-positive tumour in vivo
Description: as §1, §2, §3

NTSR1 [3] = molecular target: T1, NTSR1; test: in vivo distribution profile of SR-CP-05 derivatives (FIG. 13)
[4] = microPET imaging and biodistribution of 18F labeled NTS peptide agent in PC3 tumor-bearing nude mice; format: in vivo; conditions: male, athymic nude, mouse, PC3 tumor model; for tissue to tissue ratio at 3 h: biodistribution at 3 hr post injection
Experimental: (§4) The arrow indicates tumor. […]
(§5) Stabilized NTS peptide derivatives and constructed NTSR1 PET agents have been developed. A stabilized NTS analog with a Cys for ^18F labeling (Cys-NTSmut: Cys-pipGly-Pro-pipAmGly-Arg-Pro-Tyr-tBuGly-Leu-OH) was designed. […] Biodistribution studies were performed at 3 hr post injection, showing the tumor to muscle, liver, and kidney ratios at 19.4±5.5, 15.6±4.1, and 3.0±0.3, respectively. […] Despite the high contrast, its tumor retention is low.
(§6) Robust ^18F-labeling methods for facile preparation of ^18F-NTS agents based on NT peptide derivatives were developed. As one of the commonly used PET radioisotopes, ^18F can be easily produced in high quantities on a medical cyclotron with an ideal half-life of 110 min for imaging applications. The half-life of ^18F is sufficient to allow synthesis, transportation, and imaging procedures to be extended over several hours, while the patient is subjected to a limited amount of radiation exposure. A platform technology based on vinyl sulfone and TTCO ligation was developed, both of which are highly efficient for ^18F PET probe construction. After establishing efficient ^18F labeling methods, a stabilized NTS analog was designed with a Cys for ^18F labeling (Cys-NTSmut: Cys-pipGly-Pro-pipAmGly-Arg-Pro-Tyr-tBuGly-Leu-OH). Both ^18F-VS and TTCO ligation have been used to construct ^18F labeled PET agents targeting NTSR1.

PC3 tumor = test: as above; format: in vivo
Experimental: as §4, §5, §6

[5] = PC3 tumor model, biodistribution at 3 hr post injection

T1 sequence (P30989 whole entry): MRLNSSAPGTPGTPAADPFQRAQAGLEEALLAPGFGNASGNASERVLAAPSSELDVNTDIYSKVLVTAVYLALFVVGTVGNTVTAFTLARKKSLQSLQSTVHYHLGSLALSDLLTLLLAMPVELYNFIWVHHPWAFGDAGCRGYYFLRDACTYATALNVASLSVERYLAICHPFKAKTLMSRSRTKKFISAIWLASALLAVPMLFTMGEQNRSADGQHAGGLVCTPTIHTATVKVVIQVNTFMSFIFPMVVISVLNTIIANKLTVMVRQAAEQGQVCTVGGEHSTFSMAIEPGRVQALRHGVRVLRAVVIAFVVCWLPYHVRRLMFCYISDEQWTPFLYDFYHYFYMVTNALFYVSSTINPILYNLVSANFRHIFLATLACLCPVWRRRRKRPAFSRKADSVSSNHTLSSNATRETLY

SMILES: CC[N+]1=C(/C=C/C=C/C=C2/N(CCCCCC(=O)NCCCC[C@H](NC(=O)CN3CCN(CC(=O)O)CCN(CC(=O)O)CCN(CC(=O)O)CC3)C(=O)NCCCCCC(=O)N[C@@H](CC(=O)O)C(=O)NCC(=O)N[C@@H](CCC(=O)O)C(=O)NC(C)C(=O)O)c3ccc4c(S(=O)(=O)O)cc(S(=O)(=O)O)cc4c3C2(C)C)C(C)(C)c2c1ccc1c(S(=O)(=O)[O-])cc(S(=O)(=O)O)cc21 (some centres unmarked) [DOTA-K(Cy5.5)-Ahx-DGEA]
- in vivo distribution pattern (tumor): discrepancy between optical and PET imaging
- ex vivo distribution pattern (tumor; in vivo): discrepancy between optical and PET imaging

SMILES: CC(=O)N[C@@H](CCCCN)C(=O)N1CCC[C@H]1C(=O)N(C)[C@@H](CCCNC(=N)N)C(=O)N[C@@H](CCCNC(=N)N)C(=O)N1CCC[C@H]1C(=O)N[C@@H](Cc1ccc(O)cc1)C(=O)N[C@H](C(=O)N[C@@H](CC(C)C)C(=O)O)C(C)(C)C [NTS20.3, reference compound] (Ac-KP[NMeR]RPY[Tle]L-OH; N-terminus and C-terminus assumed)
- tissue uptake [1]: ~1.5 %ID/g

SMILES: CC(C)C[C@H](NC(=O)[C@@H](NC(=O)[C@H](Cc1ccc(O)cc1)NC(=O)[C@@H]1CCCN1C(=O)[C@H](CCCNC(=N)N)NC(=O)[C@@H](NC(=O)[C@@H]1CCCN1C(=O)[C@@H](N)C1CCNCC1)C1CCN(C(=N)N)CC1)C(C)(C)C)C(=O)O [NTSmut, reference compound] (H-[Gly(piperidin-4-yl)]P[Gly(1-amidinopiperidin-4-yl)]RPY[Tle]L-OH; N-terminus and C-terminus assumed)
- tissue uptake [1]: ~1.5 %ID/g

SMILES: CNC(=O)c1ccc(-n2nc(C(=O)NC3(C(=O)O)C4CC5CC(C4)CC3C5)cc2-c2c(OC)cccc2OC)c(C(C)C)c1 (centres unmarked) [SR-CP-05]
- tissue uptake at 24 hr ([1]; 24 hr post injection): > 15 %ID/g
- tissue uptake at 48 hr ([1]; 48 hr post injection): > 15 %ID/g
- tissue uptake at 1 hr [1]: 15.5 %ID/g
- tissue uptake at 1 hr ([1]; other: injection (kind of injection not stated)): 15.6 %ID/g
- tissue uptake at 1 hr ([1]; other: injection): 15.6 %ID/g
- overall side by side comparison (NTSR1 [2]; 64Cu labeled, FIG. 8): outperforms both NT peptide analogs and other agents based on SR142948A
- tumor/background contrast (NTSR1 [2]; 1 hr post injection): > 20
- tumor/muscle ratio (NTSR1 [2]; 1 hr post injection): > 20
- tumor uptake (NTSR1 [2]; FIG. 8 side by side comparison, 1 hr post injection): > 15 % ID/g
- tumor washout (NTSR1 [2]; after 48 hr (two days) post injection): only a minimal amount of tumor wash out
- time the agent stayed within the tumor (NTSR1 [2]; in vivo): up to 48 hr
- tumor uptake (NTSR1 [2]; in vivo): both high and persistent tumor uptake
- tumor uptake higher than 3BP-227 (NTSR1 [2]; side by side comparison): 75%
- liver uptake (NTSR1 [3]; in vivo): still relatively high

SMILES: COc1cccc(OC)c1-c1cc(C(=O)NC2(C(=O)O)C3CC4CC(C3)CC2C4)nn1-c1ccc(C(=O)N(C)CCCN(C)C(=O)CN2CCCN3CCN(CCCN(CC(=O)O)CC3)CC2)cc1C(C)C (centres unmarked) [SR-CP-18]
- distribution (NTSR1 [3]; 24 hr time point, FIG. 13): mainly showed tumor accumulation; also recorded: high contrast
- tumor uptake relative to SR-CP-05 (NTSR1 [3]; in vivo): less than half of SR-CP-05

SMILES: CC(C)C[C@H](NC(=O)[C@@H](NC(=O)[C@H](Cc1ccc(O)cc1)NC(=O)[C@@H]1CCCN1C(=O)[C@H](CCCNC(=N)N)NC(=O)[C@@H](NC(=O)[C@@H]1CCCN1C(=O)[C@@H](NC(=O)[C@@H](N)CSCCS(=O)(=O)CCOCCOCCF)C1CCNCC1)C1CCN(C(=N)N)CC1)C(C)(C)C)C(=O)O [^18F-VS-Cys-NTSmut] (H-C(X1)[Gly(piperidin-4-yl)]P[Gly(1-amidinopiperidin-4-yl)]RPY[Tle]L-OH; N-terminus assumed)
- tissue to tissue ratio at 3 h ([4]; tumor and kidney, read-out: tumor/kidney ratio): 3 ± 0.3
- tissue to tissue ratio at 3 h ([4]; tumor and liver, read-out: tumor/liver ratio): 15.6 ± 4.1
- tissue to tissue ratio at 3 h ([4]; tumor and muscle, read-out: tumor/muscle ratio): 19.4 ± 5.5
- tissue uptake [4]: 1.3 %ID/g
- background in major tissues/organs, including blood, muscle, liver and kidneys (PC3 tumor; PC3 tumor model): low background
- clearance from mice (PC3 tumor; PC3 tumor model): cleared out from mice within a few hours
- tumor retention (PC3 tumor; PC3 tumor model): low
- tumor uptake (PC3 tumor; PC3 tumor model): 1.3±0.1 % ID/g
- tumor/kidney ratio (PC3 tumor; [5]): 3.0±0.3
- tumor/liver ratio (PC3 tumor; [5]): 15.6±4.1
- tumor/muscle ratio (PC3 tumor; [5]): 19.4±5.5
- tumor uptake in the presence of cold NTS peptide (receptor specificity) (PC3 tumor; PC3 tumor, blocking with cold NTS peptide, listed as 18F-DEG-VS-NTS): successfully blocked; also recorded: efficiently blocked
